Holding throughout (experiment): NCI tumour cell line growth inhibition, 48 h
The subject of test [1] is HS 578T breast.
Test [2] concerns K-562 leukemia.
Test [3] relates to MALME-3M melanoma.
Test [4] concerns MDA-MB-231 breast.
Test [5] relates to MDA-MB-435.
Test [6] relates to MOLT-4 leukemia.
For test [7], the system named is NCI-H460 lung.
Test [8] has as its system OVCAR-5 ovarian.
Test [9] has as its system SN12C renal.
Test [10] deals with UO-31 renal.

SMILES strings stand for the structures.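 Where inhibition never reached the appropriate level, the endpoint shown equals the highest concentration tested. Otherwise, values were interpolated linearly from a five-concentration, 48-hour dose response in 96-well plates. GI50 is the concentration that inhibits growth by half. TGI: concentration producing complete growth inhibition.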 Some results are limits rather than exact numbers.

Consider `CC(=O)O[C@H]1C[C@H]2C(=S)Nc3ccccc3C(=S)N2C1`, for which the TGI in test [1], in test [2], in test [3], in test [4], in test [5] and in test [6] was greater than 100 µM each time. Also, the TGI in [7], in test [8], in test [9] and in test [10] was greater than 100 µM throughout.
As to `Nc1ccc(Oc2ccc(C34CC5CC6C3CC3CC4C(C5)C6(c4ccc(Oc5ccc(N)c(O)c5)cc4)C3)cc2)cc1O`, the TGI in test [1] is 80.5 µM; in [2], greater than 54.8 µM; in [3] it was 30.4 µM; in test [4] it was 14.9 µM; in [5], 29.3 µM; in [6] it was 12.9 µM. Further, the TGI was greater than 36.1 µM in test [7], greater than 39.5 µM in [8], 11.4 µM in [9] and 11.2 µM in test [10].
Consider `Cc1ccc(C(=O)Nc2ccc(S(=O)(=O)O)c3cc(S(=O)(=O)O)cc(S(=O)(=O)O)c23)cc1NC(=O)c1cccc(NC(=O)Nc2cccc(C(=O)Nc3cc(C(=O)Nc4ccc(S(=O)(=O)O)c5cc(S(=O)(=O)O)cc(S(=O)(=O)O)c45)ccc3C)c2)c1` (tested in a mixture with another compound), for which the TGI in test [1], in [2], in [3], in [4], in test [5] and in test [6] was greater than 50 µM each time. Also, the TGI in [7], in [8], in [9] and in test [10] was greater than 50 µM each time.
Regarding `CCCCCCCCCCCCCCCCCCOCC(COP(=O)([O-])OCC[N+](C)(C)C)OC` (stereo not given), the TGI in test [1] was greater than 100 µM; in test [2], 75.2 µM; in test [3], 46.8 µM; in [4] it was greater than 100 µM; in [5], greater than 100 µM; in test [6], 29.3 µM. Moreover, the TGI was 17.6 µM in test [7], 37 µM in test [8], 34.6 µM in test [9] and 52.7 µM in test [10].
Regarding `C=C(C(=O)OC)c1cc2ccccc2n1S(=O)(=O)c1ccccc1`, the TGI in test [1] is 18.8 µM; in test [2], greater than 100 µM; in test [3], 5.72 µM; in [4], 6.16 µM; in test [5], 7.28 µM; in [6] it was greater than 24 µM. For the same compound, the TGI in test [7] came out at 8.23 µM; in [8], 21.7 µM; in [9], 8.18 µM; in [10], 9.41 µM.
For `Oc1cccc(-c2cn3cc(C(F)(F)F)ccc3n2)c1`, the TGI in [1] was greater than 100 µM; in test [2] it was greater than 100 µM; in test [3] it was greater than 100 µM; in test [4], greater than 100 µM; in test [5], greater than 100 µM; in [6], 40.1 µM. The TGI in test [7], in test [8], in test [9] and in test [10] was greater than 100 µM each time.
Turning to `C(=C\c1cc(-c2ccc3ccccc3n2)nc2ccc3ccccc3c12)/c1ccc2ccccc2n1`, the TGI in test [1], in [2], in test [3], in test [4], in [5] and in test [6] was greater than 100 µM in each case. Besides, the TGI in test [7], in [8], in [9] and in [10] was greater than 100 µM each time.
Take `O=[N+]([O-])c1ccc2c(c1)c(S(=O)(=O)O)cc1nonc12`: the TGI in test [1], in [2], in test [3], in test [4], in [5] and in test [6] was greater than 100 µM each time. Besides, the TGI in test [7], in [8], in test [9] and in test [10] was greater than 100 µM in each case.
With `CCOc1ccc2nc(NC(NC(=O)c3cccnc3)(C(F)(F)F)C(F)(F)F)sc2c1`, the TGI in test [1] was greater than 100 µM; in test [2], greater than 100 µM; in [3], greater than 100 µM; in [4], greater than 100 µM; in test [5], 65.4 µM; in test [6], 55.5 µM. For the same compound, the TGI in [7], in [8], in test [9] and in test [10] was greater than 100 µM throughout.
As for `Oc1ccc(C#CCOc2ccccc2)cc1CNCCN(Cc1ccccn1)Cc1ccccn1`, the GI50 in [1] is 1.69 µM; in [2] it was 2.49 µM; in test [3], 1.63 µM; in [4], 1.38 µM; in test [5], 1.82 µM; in test [6] it was 2 µM. For the same compound, the GI50 in [7] was 0.538 µM; in test [8], 1.18 µM; in test [9], 1.08 µM; in test [10] it was 1.02 µM. Also, the TGI is 6.14 µM in [1]; 13.8 µM in test [2]; 3.31 µM in test [3]; 2.96 µM in test [4]; 3.44 µM in test [5]; 5.56 µM in test [6]. Further, the TGI in test [7] stood at 2.38 µM; in test [8], 3.72 µM; in [9], 2.65 µM; in test [10] it was 2.5 µM.
As for `C/C(=N\N=C(N)N)C(CN(C)C)C(c1ccccc1)c1c(O)c2ccccc2oc1=O` (stereo not given), the TGI in [1], in test [2], in [3], in [4], in [5] and in [6] was greater than 100 µM in each case. Also, the TGI in test [7], in [8], in [9] and in test [10] was greater than 100 µM in each case.
For the compound `Cc1nc(C(N)=S)sc1C(=O)C/C(=N/N)C(=O)Nc1ccc(Cl)cc1`, the TGI in [1], in [2], in test [3], in test [4], in test [5] and in [6] was greater than 100 µM each time. The TGI in test [7], in test [8], in test [9] and in test [10] was greater than 100 µM each time.
